The values below come from patent publication US9408388B2 (Dow Global Technologies LLC, priority 2013, dated 2016).

Experiment [1] deals with Stichococcus bacillaris SAG 379-1a CCAP 379/1a. The experiment in a line: Algal efficacy testing of dry paint film (modified ASTM 5589, 6-well plates). It counts as cell-based. As to conditions: 4 weeks. As for the experimental part: (§1) Slurries containing 34.3% carbendazim were post added to a white, acrylic/silicone based outdoor paint free of biocides to give a total active ingredient concentration of 10000 and 1000 ppm respectively. These paints were then diluted with an antimicrobial free acrylic/silicone based paint and mixed to prepare targeted concentrations of antimicrobial compounds for the testing. The total biocides concentrations tested were 125, 250, 500, 1000, 2000 and 5000 ppm. After biocides addition or dilution, the paints were mixed 90 seconds with the horse power shaker (AXEL 75M3372/Agitateur SO-10MI) until uniformity was achieved. Paints containing different antimicrobial compounds at the same levels were mixed together in order to obtain the desired ratio of antimicrobial compounds. After one day, the paints were applied to Schleicher & Schuell filter paper at 280 μm wet film thickness and dried for 3 days at room temperature avoiding direct exposure to sunlight. Square discs (1.6 cm×1.6 cm) were cut out from each panel and were used as the substrate for algal efficacy tests. This sample size allowed for an agar border when the sample disc was placed into the well of the test plate.
(§2) Algal efficacy was tested according to modified ASTM 5589 which is a standard accelerated test method for determining resistance of various coatings (including paints) to algal defacement. To accommodate for high-throughput screening, this method was scaled down from petri dishes to 6-well plates. Bold Modified Basal Freshwater Nutrient Solution was used as growth medium. A single coated filter paper coupon was placed with a pair of sterile forceps at the center of the agar plug (on top) with the painted surface facing upwards. Algal inoculums were prepared by mixing equal concentrations (1×10^6 cfu/ml) and equal volumes of exponentially growing algae cultures.
(§3) Each well that contains a tested coupon was inoculated with 1750 μl of algal suspensions (1×10^6 cfu/ml) making sure that the whole surface (paint film as well as the agar surrounding it) was evenly covered. The plates were incubated at room temp (21° C. -25° C.) with cyclic exposure to light and dark phases, for a period of four weeks.
(§4) At the end of the four week incubation period, the samples were scored for percent inhibition regarding visible algal growth compared to the blank sample (0% inhibition).
(§5) The SI is calculated based on F. C. Kull et.
(§6) The minimal targeted inhibition was set at 75%, meaning a coupon with at least 75% algal growth inhibition was considered as a pass.

Another experiment concerns Chlorella sp. ATCC 7516. Described as above. It is filed as cell-based. To be noted: 4 weeks. As for the experimental part:
as §1, §2, §3, §4, §5, §6

Where [2] appears, read: pass level 75% inhibition, total biocide in liquid paint.

Each structure is given as a SMILES string.

What is called inhibition is the drop in the measured response relative to a control, in per cent.

For the compound `O=c1[nH]c2c(c(=O)n1C1CCCCC1)CCC2` [Lenacil, 3-cyclohexyl-1,5,6,7-tetrahydrocyclopentapyrimidine-2,4(3H)-dione], the inhibition at 5000 ppm in experiment [1] (Stichococcus bacillaris, 672 h, total conc 5000 ppm, visible algal growth vs blank) came to 65%; with Chlorella sp. ATCC 7516 (672 h, total conc 5000 ppm, visible algal growth vs blank), 45%.
In the case of `COC(=O)Nc1nc2ccccc2[nH]1` [Carbendazim, methylbenzimidazol-2-ylcarbamate], the “Total conc (concentration used for SI; lowest passing level or highest level without pass)” value (in experiment [1] (setting [2]); with Chlorella sp. ATCC 7516 (setting [2])) was 2000 ppm throughout. For the same compound, the inhibition at 2000 ppm in experiment [1] (Stichococcus bacillaris, 672 h, total conc 2000 ppm, visible algal growth vs blank) is 45%; with Chlorella sp. ATCC 7516 (672 h, total conc 2000 ppm, visible algal growth vs blank), 45%.
